From US20240166646A1, “1H-PYRROLO[2,3-B]PYRIDINE DERIVATIVES AS BCL-2 INHIBITORS FOR THE TREATMENT OF NEOPLASTIC AND AUTOIMMUNE DISEASES” (Newave Pharmaceutical Inc., priority 2020, published 2024)
Counter-ions that a name gives are not always drawn.

How the values were obtained:
[1] = tested on: BCL-2-dependent acute lymphoblastic leukemia (ALL) cell line RS4; 11 with G101V mutation; assay: In vitro anti-proliferation assay (ATPlite) in RS4; 11 with G101V mutation; assay type: cell-based; details: about 72 hours incubation, medium with 5% FBS or 10% normal human serum, ATPlite luminescence
Experimental: Cell antiproliferation was assayed by PerkinElmer ATPlite™ Luminescence Assay System. Briefly, the various test cancer cell lines were plated at a density of about 1×10^4 cells per well in Costar 96-well plates, and were incubated with different concentrations of compounds for about 72 hours in medium supplemented with 5% FBS or 10% normal human serum (NHS). One lyophilized substrate solution vial was then reconstituted by adding 5 mL of substrate buffer solution, and was agitated gently until the solution was homogeneous. About 50 μL of mammalian cell lysis solution was added to 100 μL of cell suspension per well of a microplate, and the plate was shaken for about five minutes in an orbital shaker at ˜700 rpm. This procedure was used to lyse the cells and to stabilize the ATP. Next, 50 μL substrate solution was added to the wells and microplate was shaken for five minutes in an orbital shaker at ˜700 rpm. Finally, the luminescence was measured by a PerkinElmer TopCount® Microplate Scintillation Counter. Such assays, carried out with a range of doses of test compounds, allowed the determination of the cellular anti-antiproliferative IC50 of the compounds of the present invention.

Bcl-2 = Bcl-2 (Homo sapiens (Human), UniProt P10415); assay: Bcl-2 competition binding (fluorescence polarization) assay; details: fluorescein labeled BH3 peptide 15 nM, Bcl-2 protein 30 nM, 3 hours of incubation at room temperature
Sequence of Bcl-2 (P10415 whole entry): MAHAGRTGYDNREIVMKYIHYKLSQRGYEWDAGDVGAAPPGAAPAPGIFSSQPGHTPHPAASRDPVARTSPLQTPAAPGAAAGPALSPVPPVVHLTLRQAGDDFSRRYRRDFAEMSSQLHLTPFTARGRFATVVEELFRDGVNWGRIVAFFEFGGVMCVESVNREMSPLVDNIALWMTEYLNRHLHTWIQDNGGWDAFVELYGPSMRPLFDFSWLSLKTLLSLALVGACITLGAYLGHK
Outline: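 Fluorescence polarization competition of 15 nM labeled 23-mer BH3 peptide with 30 nM purified Bcl-2, in 20 mM Hepes pH 7.0, 50 mM KCl, 5 mM MgCl2, 20 mM Na2MoO4, 0.1 mg/ml bovine gamma globulin, 0.01% NP40. Compounds 20 μM to 2 nM final; mP read after 3 h at room temperature, background-subtracted. IC50 from sigmoidal dose-response fit.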

SMILES: CO[C@]1(C)CC[C@H](CNc2ccc(S(=O)(=O)NC(=O)c3ccc(N4CCC5(CC4)CC(N4CCC[C@H]4c4ccccc4C(C)C)C5)cc3N3c4cc5cc[nH]c5nc4O[C@@H]4COC[C@H]43)cc2[N+](=O)[O-])CC1 [Example 37, 4-(2-((S)-2-(2-isopropylphenyl)pyrrolidin-1-yl)-7-azaspiro[3.5]nonan-7-yl)-N-((4-((((1s,4s)-4-methoxy-4-methylcyclohexyl)methyl)amino)-3-nitrophenyl)sulfonyl)-2-((5aR,8aS)-5a,6,8,8a-tetrahydrofuro[3,4-b]pyrrolo[3′,2′:5,6]pyrido[3,2-e][1,4]oxazin-5(1H)-yl)benzamide hydrochloride]
- IC50 [1]: 15.2 nM
- IC50 (Bcl-2): 0.358 nM

SMILES: Cc1ccccc1[C@@H]1CCCN1C1CC2(CCN(c3ccc(C(=O)NS(=O)(=O)c4ccc(NCC5(F)CCOCC5)c([N+](=O)[O-])c4)c(N4c5cc6cc[nH]c6nc5O[C@@H]5COC[C@H]54)c3)CC2)C1 [Example 38, N-((4-(((4-fluorotetrahydro-2H-pyran-4-yl)methyl)amino)-3-nitrophenyl)sulfonyl)-2-((5aR,8aS)-5a,6,8,8a-tetrahydrofuro[3,4-b]pyrrolo[3′,2′:5,6]pyrido[3,2-e][1,4]oxazin-5(1H)-yl)-4-(2-((S)-2-(o-tolyl)pyrrolidin-1-yl)-7-azaspiro[3.5]nonan-7-yl)benzamide]
- IC50 ([1]; RS4-11): 13.6 nM
- IC50 (Bcl-2): 0.202 nM

SMILES: Cc1ccccc1[C@@H]1CCCN1C1CC2(CCN(c3ccc(C(=O)NS(=O)(=O)c4ccc(NC[C@H]5COCCO5)c([N+](=O)[O-])c4)c(N4c5cc6cc[nH]c6nc5O[C@@H]5COC[C@H]54)c3)CC2)C1 [Example 39, N-((4-((((S)-1,4-dioxan-2-yl)methyl)amino)-3-nitrophenyl)sulfonyl)-2-((5aR,8aS)-5a,6,8,8a-tetrahydrofuro[3,4-b]pyrrolo[3′,2′:5,6]pyrido[3,2-e][1,4]oxazin-5(1H)-yl)-4-(2-((S)-2-(o-tolyl)pyrrolidin-1-yl)-7-azaspiro[3.5]nonan-7-yl)benzamide]
- IC50 ([1]; RS4-11): 49.2 nM
- IC50 (Bcl-2): 0.19 nM

SMILES: Cc1ccccc1[C@@H]1CCCN1C1CC2(CCN(c3ccc(C(=O)NS(=O)(=O)c4ccc(NCC5CCC(C)(O)CC5)c([N+](=O)[O-])c4)c(N4c5cc6cc[nH]c6nc5O[C@@H]5COC[C@H]54)c3)CC2)C1 (stereo partly drawn) [Example 40, N-((4-((((1s,4s)-4-hydroxy-4-methylcyclohexyl)methyl)amino)-3-nitrophenyl)sulfonyl)-2-((5aR,8aS)-5a,6,8,8a-tetrahydrofuro[3,4-b]pyrrolo[3′,2′:5,6]pyrido[3,2-e][1,4]oxazin-5(1H)-yl)-4-(2-((S)-2-(o-tolyl)pyrrolidin-1-yl)-7-azaspiro[3.5]nonan-7-yl)benzamide]
- IC50 [1]: 34.7 nM
- IC50 (Bcl-2): 0.2 nM

SMILES: Cc1ccccc1[C@@H]1CCCN1C1CC2(CCN(c3ccc(C(=O)NS(=O)(=O)c4ccc(NCC5CCC(C)(O)CC5)c([N+](=O)[O-])c4)c(N4c5cc6cc[nH]c6nc5O[C@@H]5COC[C@H]54)c3)CC2)C1 (stereo partly drawn) [Example 41, N-((4-((((1r,4r)-4-hydroxy-4-methylcyclohexyl)methyl)amino)-3-nitrophenyl)sulfonyl)-2-((5aR,8aS)-5a,6,8,8a-tetrahydrofuro[3,4-b]pyrrolo[3′,2′:5,6]pyrido[3,2-e][1,4]oxazin-5(1H)-yl)-4-(2-((S)-2-(o-tolyl)pyrrolidin-1-yl)-7-azaspiro[3.5]nonan-7-yl)benzamide]
- IC50 [1]: 14.7 nM
- IC50 (Bcl-2): 0.18 nM

SMILES: CC(C)Oc1ccccc1[C@@H]1CCCN1C1CC2(CCN(c3ccc(C(=O)NS(=O)(=O)c4ccc(NCC5(F)CCOCC5)c([N+](=O)[O-])c4)c(N4c5cc6cc[nH]c6nc5O[C@@H]5COC[C@H]54)c3)CC2)C1 [Example 42, N-((4-(((4-fluorotetrahydro-2H-pyran-4-yl)methyl)amino)-3-nitrophenyl)sulfonyl)-4-(2-((S)-2-(2-isopropoxyphenyl)pyrrolidin-1-yl)-7-azaspiro[3.5]nonan-7-yl)-2-((5aR,8aS)-5a,6,8,8a-tetrahydrofuro[3,4-b]pyrrolo[3′,2′:5,6]pyrido[3,2-e][1,4]oxazin-5(1H)-yl)benzamide]
- IC50 ([1]; RS4-11): 29.2 nM
- IC50 (Bcl-2): 0.217 nM

SMILES: CC(C)Oc1ccccc1[C@@H]1CCCN1C1CC2(CCN(c3ccc(C(=O)NS(=O)(=O)c4ccc(NC[C@H]5COCCO5)c([N+](=O)[O-])c4)c(N4c5cc6cc[nH]c6nc5O[C@@H]5COC[C@H]54)c3)CC2)C1 [Example 43, N-((4-((((S)-1,4-dioxan-2-yl)methyl)amino)-3-nitrophenyl)sulfonyl)-4-(2-((S)-2-(2-isopropoxyphenyl)pyrrolidin-1-yl)-7-azaspiro[3.5]nonan-7-yl)-2-((5aR,8aS)-5a,6,8,8a-tetrahydrofuro[3,4-b]pyrrolo[3′,2′:5,6]pyrido[3,2-e][1,4]oxazin-5(1H)-yl)benzamide]
- IC50 ([1]; RS4-11): 86.4 nM
- IC50 (Bcl-2): 0.28 nM

SMILES: CC(C)Oc1ccccc1[C@@H]1CCCN1C1CC2(CCN(c3ccc(C(=O)NS(=O)(=O)c4ccc(NCC5CCC(C)(O)CC5)c([N+](=O)[O-])c4)c(N4c5cc6cc[nH]c6nc5O[C@@H]5COC[C@H]54)c3)CC2)C1 (stereo partly drawn) [Example 44, N-((4-((((1s,4s)-4-hydroxy-4-methylcyclohexyl)methyl)amino)-3-nitrophenyl)sulfonyl)-4-(2-((S)-2-(2-isopropoxyphenyl)pyrrolidin-1-yl)-7-azaspiro[3.5]nonan-7-yl)-2-((5aR,8aS)-5a,6,8,8a-tetrahydrofuro[3,4-b]pyrrolo[3′,2′:5,6]pyrido[3,2-e][1,4]oxazin-5(1H)-yl)benzamide]
- IC50 [1]: 98.3 nM
- IC50 (Bcl-2): 0.179 nM

SMILES: CC(C)Oc1ccccc1[C@@H]1CCCN1C1CC2(CCN(c3ccc(C(=O)NS(=O)(=O)c4ccc(NCC5CCC(C)(O)CC5)c([N+](=O)[O-])c4)c(N4c5cc6cc[nH]c6nc5O[C@@H]5COC[C@H]54)c3)CC2)C1 (stereo partly drawn) [Example 45, N-((4-((((1r,4r)-4-hydroxy-4-methylcyclohexyl)methyl)amino)-3-nitrophenyl)sulfonyl)-4-(2-((S)-2-(2-isopropoxyphenyl)pyrrolidin-1-yl)-7-azaspiro[3.5]nonan-7-yl)-2-((5aR,8aS)-5a,6,8,8a-tetrahydrofuro[3,4-b]pyrrolo[3′,2′:5,6]pyrido[3,2-e][1,4]oxazin-5(1H)-yl)benzamide]
- IC50 [1]: 23.8 nM
- IC50 (Bcl-2): 0.198 nM

SMILES: CC(C)(C)c1ccccc1[C@@H]1CCCN1C1CC2(CCN(c3ccc(C(=O)NS(=O)(=O)c4ccc(NCC5CCOCC5)c([N+](=O)[O-])c4)c(N4c5cc6cc[nH]c6nc5O[C@@H]5COC[C@H]54)c3)CC2)C1 [Example 46, 4-{2-[(2S)-2-(2-tert-butylphenyl)pyrrolidin-1-yl]-7-azaspiro[3.5]nonan-7-yl}-2-[(11R,15S)-13,16-dioxa-2,4,10-triazatetracyclo[7.7.0.0^{3,7}.0^{11,15}]hexadeca-1(9),2,5,7-tetraen-10-yl]-N-{3-nitro-4-[(oxan-4-ylmethyl)amino]benzenesulfonyl}benzamide]
- IC50 [1]: 58.2 nM
- IC50 (Bcl-2): 0.398 nM

SMILES: CC#Cc1ccccc1[C@@H]1CCCN1C1CC2(CCN(c3ccc(C(=O)NS(=O)(=O)c4ccc(NCC5CCOCC5)c([N+](=O)[O-])c4)c(N4c5cc6cc[nH]c6nc5O[C@@H]5COC[C@H]54)c3)CC2)C1 [Example 47, N-((3-nitro-4-(((tetrahydro-2H-pyran-4-yl)methyl)amino)phenyl)sulfonyl)-4-(2-((S)-2-(2-(prop-1-yn-1-yl)phenyl)pyrrolidin-1-yl)-7-azaspiro[3.5]nonan-7-yl)-2-((5aR,8aS)-5a,6,8,8a-tetrahydrofuro[3,4-b]pyrrolo[3′,2′:5,6]pyrido[3,2-e][1,4]oxazin-5(1H)-yl)benzamide]
- IC50 ([1]; RS4-11): 288 nM
- IC50 (Bcl-2): 0.307 nM

SMILES: Cc1ccccc1[C@@H]1COCCN1C1CC2(CCN(c3ccc(C(=O)NS(=O)(=O)c4ccc(NCC5CCOCC5)c([N+](=O)[O-])c4)c(N4c5cc6cc[nH]c6nc5O[C@@H]5COC[C@H]54)c3)CC2)C1 [Example 50, N-((3-nitro-4-(((tetrahydro-2H-pyran-4-yl)methyl)amino)phenyl)sulfonyl)-2-((5aR,8aS)-5a,6,8,8a-tetrahydrofuro[3,4-b]pyrrolo[3′,2′:5,6]pyrido[3,2-e][1,4]oxazin-5(1H)-yl)-4-(2-((R)-3-(o-tolyl)morpholino)-7-azaspiro[3.5]nonan-7-yl)benzamide]
- IC50 ([1]; RS4-11): 71.8 nM
- IC50 (Bcl-2): 0.265 nM

SMILES: Cc1ccccc1[C@H]1COCCN1C1CC2(CCN(c3ccc(C(=O)NS(=O)(=O)c4ccc(NCC5CCOCC5)c([N+](=O)[O-])c4)c(N4c5cc6cc[nH]c6nc5O[C@@H]5COC[C@H]54)c3)CC2)C1 [Example 51, N-((3-nitro-4-(((tetrahydro-2H-pyran-4-yl)methyl)amino)phenyl)sulfonyl)-2-((5aR,8aS)-5a,6,8,8a-tetrahydrofuro[3,4-b]pyrrolo[3′,2′:5,6]pyrido[3,2-e][1,4]oxazin-5(1H)-yl)-4-(2-((S)-3-(o-tolyl)morpholino)-7-azaspiro[3.5]nonan-7-yl)benzamide]
- IC50 ([1]; RS4-11): 359 nM
- IC50 (Bcl-2): 1.08 nM
